Measurements taken from patent US10544130B2, “Metallo-beta-lactamase inhibitors” (priority 2015, dated 2020).

System: Pseudomonas aeruginosa PAO1 MB9798 (efflux+, IMP-1)
Details: ratio MITC95 PA 9798/MITC95 PA 9799; imipenem at 2 μg/mL
How it was run: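 Isogenic PAO1 pair (efflux+ MB9798, efflux− MB9799, both IMP-1) tested by microbroth MIC with fixed imipenem and/or ceftazidime, usually at CLSI breakpoint, plus fixed class A/C inhibitor against AmpC. MBL inhibitor titrated; concentration restoring susceptibility recorded and fold difference between strains taken as efflux extent.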

Row | Structure (SMILES) | Efflux ratio
1 | Nc1nc2c(-c3ccc(S(=O)(=O)NCc4ccccn4)c(S(N)(=O)=O)c3-c3nnn[nH]3)cccc2s1.O=C(O)C(F)(F)F [Example 106, 2-((4-(2-aminobenzo[d]thiazol-4-yl)-2-sulfamoyl-3-(1H-tetrazol-5-yl)phenylsulfonamido)methyl)pyridin-1-ium 2,2,2-trifluoroacetate] | 4.00
2 | NS(=O)(=O)c1c(S(=O)(=O)N[C@@H]2CCNC2)ccc(-c2cccc(-c3nc[nH]n3)c2)c1-c1nn[nH]n1 [Example 225, (R)-N4-(pyrrolidin-3-yl)-2-(2H-tetrazol-5-yl)-3′-(1H-1,2,4-triazol-3-yl)-[1,1′-biphenyl]-3,4-disulfonamide] | 1.00
3 | Nc1nc2c(-c3ccc(S(=O)(=O)N4CCNCC4)c(S(N)(=O)=O)c3-c3nn[nH]n3)cccc2o1 [Example 159, 3-(2-aminobenzo[d]oxazol-4-yl)-6-(piperazin-1-ylsulfonyl)-2-(2H-tetrazol-5-yl)benzenesulfonamide] | 2.00
4 | NC[C@H](CO)NS(=O)(=O)c1ccc(-c2cccc3sc(N)nc23)c(-c2nnn[nH]2)c1S(N)(=O)=O [Example 202, (R)—N^1-(1-amino-3-hydroxypropan-2-yl)-4-(2-aminobenzo[d]thiazol-4-yl)-3-(1H-tetrazol-5-yl)benzene-1,2-disulfonamide] | 1.00
5 | Nc1nc2c(-c3ccc(S(=O)(=O)NCC4CCNC4)c(S(N)(=O)=O)c3-c3nnn[nH]3)cccc2s1.O=CO (centres unmarked) [Example 120, 3-((4-(2-aminobenzo[d]thiazol-4-yl)-2-sulfamoyl-3-(1H-tetrazol-5-yl)phenylsulfonamido)methyl)pyrrolidin-1-ium formate] | 0.50
6 | NCC(CN)NS(=O)(=O)c1ccc(-c2cccnc2N)c(-c2nn[nH]n2)c1S(N)(=O)=O [Example 210, 4-(2-aminopyridin-3-yl)-N1-(1,3-diaminopropan-2-yl)-3-(2H-tetrazol-5-yl)benzene-1,2-disulfonamide] | 2.00
7 | Nc1nc2c(-c3ccc(S(=O)(=O)N[C@H]4CN[C@@H](C(=O)O)C4)c(S(N)(=O)=O)c3-c3nnn[nH]3)cccc2s1 [Example 82, (4R)-4-({[4-(2-amino-1,3-benzothiazol-4-yl)-2-sulfamoyl-3-(1H-tetrazol-5-yl)phenyl]sulfonyl}amino)-D-proline] | 0.50
8 | Nc1nc2c(-c3ccc(S(=O)(=O)N4CCC(N)(CO)C4)c(S(N)(=O)=O)c3-c3nnn[nH]3)cccc2s1 (centres unmarked) [Example 55, 3-(2-amino-1,3-benzothiazol-4-yl)-6-{[3-amino-3-(hydroxymethyl)pyrrolidin-1-yl]sulfonyl}-2-(1H-tetrazol-5-yl)benzenesulfonamide] | 1.00
9 | Nc1ccc2cccc(-c3ccc(S(N)(=O)=O)c(S(N)(=O)=O)c3-c3nn[nH]n3)c2n1 [Example 2, 4-(2-aminoquinolin-8-yl)-3-(2H-tetrazol-5-yl)benzene-1,2-disulfonamide] | 1.00
10 | NS(=O)(=O)c1c(S(=O)(=O)N[C@@H]2CCNC2)ccc(-c2cccc3c2OC(F)(F)O3)c1-c1nnn[nH]1 [Example 131, (R)-4-(2,2-difluorobenzo[d][1,3]dioxol-4-yl)-N1-(pyrrolidin-3-yl)-3-(1H-tetrazol-5-yl)benzene-1,2-disulfonamide] | 16.00
11 | Nc1nc2c(-c3ccc(S(=O)(=O)N4CCC(N)CC4)c(S(N)(=O)=O)c3-c3nn[nH]n3)cccc2s1 [Example 148, 3-(2-aminobenzo[d]thiazol-4-yl)-6-((4-aminopiperidin-1-yl)sulfonyl)-2-(2H-tetrazol-5-yl)benzenesulfonamide] | 2.00
12 | Nc1nc2c(-c3ccc(S(=O)(=O)N[C@H]4CNC[C@H]4N)c(S(N)(=O)=O)c3-c3nn[nH]n3)cccc2[nH]1 [Example 241, 4-(2-amino-1H-benzo[d]imidazol-4-yl)-N^1-((3S,4R)-4-aminopyrrolidin-3-yl)-3-(2H-tetrazol-5-yl)benzene-1,2-disulfonamide] | 0.83
13 | NCC1CN(S(=O)(=O)c2ccc(-c3cccc4sc(N)nc34)c(-c3nnn[nH]3)c2S(N)(=O)=O)CCO1.O=C(O)C(F)(F)F (centres unmarked) [Example 104, (4-((4-(2-aminobenzo[d]thiazol-4-yl)-2-sulfamoyl-3-(1H-tetrazol-5-yl)phenyl)sulfonyl)morpholin-2-yl) methanaminium 2,2,2-trifluoroacetate] | 2.00
14 | Nc1ccc2cccc(-c3ccc(S(=O)(=O)N[C@@H]4CNC[C@@H]4N)c(S(N)(=O)=O)c3-c3nn[nH]n3)c2n1 [Example 319, N^1-((3R,4S)-4-aminopyrrolidin-3-yl)-4-(2-aminoquinolin-8-yl)-3-(2H-tetrazol-5-yl)benzene-1,2-disulfonamide] | 1.00
15 | Nc1nc2c(-c3ccc(S(=O)(=O)N4CCNC(=O)C4)c(S(N)(=O)=O)c3-c3nnn[nH]3)cccc2s1 [Example 28, 3-(2-amino-1,3-benzothiazol-4-yl)-6-[(3-oxopiperazin-1-yl)sulfonyl]-2-(1H-tetrazol-5-yl)benzenesulfonamide] | 4.00
16 | Nc1nc2c(-c3ccc(S(=O)(=O)N[C@H]4CNC[C@H]4O)c(S(N)(=O)=O)c3-c3nnn[nH]3)cccc2[nH]1 [Example 168, 4-(2-amino-1H-benzo[d]imidazol-4-yl)-N^1-((3S,4R)-4-hydroxypyrrolidin-3-yl)-3-(1H-tetrazol-5-yl)benzene-1,2-disulfonamide] | 0.70
17 | NCCOCCNS(=O)(=O)c1ccc(-c2cccc3sc(N)nc23)c(-c2nnn[nH]2)c1S(N)(=O)=O [Example 203, 4-(2-aminobenzo[d]thiazol-4-yl)-N^1-(2-(2-aminoethoxy)ethyl)-3-(1H-tetrazol-5-yl)benzene-1,2-disulfonamide] | 0.50
18 | Nc1nc2c(-c3ccc(S(=O)(=O)N[C@H]4CO[C@H]5[C@@H]4OC[C@H]5N)c(S(N)(=O)=O)c3-c3nnn[nH]3)cccc2s1.O=C(O)C(F)(F)F [Example 103, (3R,3aR,6S,6aR)-6-(4-(2-aminobenzo[d]thiazol-4-yl)-2-sulfamoyl-3-(1H-tetrazol-5-yl)phenylsulfonamido) hexahydrofuro[3,2-b] furan-3-aminium 2,2,2-trifluoroacetate] | 2.00
19 | C[C@@H](N)CNS(=O)(=O)c1ccc(-c2cccc3[nH]c(N)nc23)c(-c2nn[nH]n2)c1S(N)(=O)=O [Example 185, 4-(2-amino-1H-benzo[d]imidazol-4-yl)-N1-((R)-2-aminopropyl)-3-(2H-tetrazol-5-yl)benzene-1,2-disulfonamide] | 0.65
20 | Nc1nc2c(-c3ccc(S(=O)(=O)N[C@H]4CN[C@H](CO)C4)c(S(N)(=O)=O)c3-c3nnn[nH]3)cccc2[nH]1 [Example 172, 4-(2-amino-1H-benzo[d]imidazol-4-yl)-N^1-((3R,5S)-5-(hydroxymethyl)pyrrolidin-3-yl)-3-(1H-tetrazol-5-yl)benzene-1,2-disulfonamide] | 0.50
21 | C[C@@H](CN)NS(=O)(=O)c1ccc(-c2cccc3[nH]c(N)nc23)c(-c2nn[nH]n2)c1S(N)(=O)=O [Example 186, 4-(2-amino-1H-benzo[d]imidazol-4-yl)-N^1—((S)-1-aminopropan-2-yl)-3-(2H-tetrazol-5-yl)benzene-1,2-disulfonamide] | 2.00
22 | Nc1ccc(-c2ccc(S(=O)(=O)NC[C@]3(N)CCNC3)c(S(N)(=O)=O)c2-c2nn[nH]n2)cn1 [Example 368, (S)-4-(6-aminopyridin-3-yl)-N1-((3-aminopyrrolidin-3-yl)methyl)-3-(2H-tetrazol-5-yl)benzene-1,2-disulfonamide] | 1.00
23 | Nc1nc2c(-c3ccc(S(=O)(=O)N[C@]4(CO)CCNC4)c(S(N)(=O)=O)c3-c3nnn[nH]3)cccc2[nH]1 [Example 177, (R)-4-(2-amino-1H-benzo[d]imidazol-4-yl)-N1-(3-(hydroxymethyl)pyrrolidin-3-yl)-3-(1H-tetrazol-5-yl)benzene-1,2-disulfonamide] | 0.50
24 | Nc1nc2c(-c3ccc(S(=O)(=O)N[C@@H]4CN[C@H](CO)C4)c(S(N)(=O)=O)c3-c3nnn[nH]3)cccc2[nH]1 [Example 175, 4-(2-amino-1H-benzo[d]imidazol-4-yl)-N^1 - ((3S,5S)-5-(hydroxymethyl)pyrrolidin-3-yl)-3-(1H-tetrazol-5-yl)benzene-1,2-disulfonamide] | 0.50
25 | Nc1nc2c(-c3ccc(S(=O)(=O)N[C@@H]4CN[C@@H](CO)C4)c(S(N)(=O)=O)c3-c3nnn[nH]3)cccc2[nH]1 [Example 174, 4-(2-amino-1H-benzo[d]imidazol-4-yl)-N^1-((3S,5R)-5-(hydroxymethyl)pyrrolidin-3-yl)-3-(1H-tetrazol-5-yl)benzene-1,2-disulfonamide] | 1.00
26 | C[C@H](CN)NS(=O)(=O)c1ccc(-c2cncc(N)c2)c(-c2nn[nH]n2)c1S(N)(=O)=O [Example 221, (R)—N1-(1-aminopropan-2-yl)-4-(5-aminopyridin-3-yl)-3-(2H-tetrazol-5-yl)benzene-1,2-disulfonamide] | 1.00
27 | NCC(F)(F)CNS(=O)(=O)c1ccc(-c2cccc3sc(N)nc23)c(-c2nnn[nH]2)c1S(N)(=O)=O [Example 47, 4-(2-amino-1,3-benzothiazol-4-yl)-N1-(3-amino-2,2-difluoropropyl)-3-(1H-tetrazol-5-yl)benzene-1,2-disulfonamide] | 1.00
28 | COc1ccnc(CNS(=O)(=O)c2ccc(-c3cccc4sc(N)nc34)c(-c3nnn[nH]3)c2S(N)(=O)=O)n1 [Example 34, 4-(2-amino-1,3-benzothiazol-4-yl)-N1-[(4-methoxypyrimidin-2-yl)methyl]-3-(1H-tetrazol-5-yl)benzene-1,2-disulfonamide] | 4.00
29 | CN1CCC(N(C)S(=O)(=O)c2ccc(-c3cccc4sc(N)nc34)c(-c3nnn[nH]3)c2S(N)(=O)=O)C1 (centres unmarked) [Example 54, 4-(2-amino-1,3-benzothiazol-4-yl)-N1-methyl-N^1-(1-methylpyrrolidin-3-yl)-3-(1H-tetrazol-5-yl)benzene-1,2-disulfonamide] | 2.00
